Several values for one entry are separate records, joined by “and”; a condition that tells them apart may be missing. Equal values may be shown once.

Common to all, as to assay: Kinase assay, wild type kinases
Holding throughout (format): biochemical

One assay addresses T1, AURORA C (Homo sapiens, UniProt Q9UQB9).
T1 sequence (Q9UQB9 1-309): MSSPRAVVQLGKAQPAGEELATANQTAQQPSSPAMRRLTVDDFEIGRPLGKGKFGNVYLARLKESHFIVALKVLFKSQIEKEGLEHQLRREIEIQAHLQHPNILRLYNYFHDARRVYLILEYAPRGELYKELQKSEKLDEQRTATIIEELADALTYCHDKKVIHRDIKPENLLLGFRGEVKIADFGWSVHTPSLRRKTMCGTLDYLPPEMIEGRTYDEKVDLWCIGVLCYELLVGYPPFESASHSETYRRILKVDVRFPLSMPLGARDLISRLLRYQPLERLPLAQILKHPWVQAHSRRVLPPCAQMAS
The following applies: compound 10 μM, 10 μM ATP, duplicate (Data 1, Data 2), >100 activation, <100 inhibition; for remaining activity at 10 µM: read-out: % Enzyme Activity (relative to DMSO controls), AURORA C.

The target of the next assay is PIM3 (Homo sapiens, UniProt Q86V86). To be noted: compound 10 μM, 10 μM ATP, duplicate (Data 1, Data 2), >100 activation, <100 inhibition; for remaining activity at 10 µM: read-out: % Enzyme Activity (relative to DMSO controls), PIM3.
In another assay the target is MELK (Homo sapiens, UniProt Q14680). The following applies: compound 10 μM, 10 μM ATP, duplicate (Data 1, Data 2), >100 activation, <100 inhibition; for remaining activity at 10 µM: read-out: % Enzyme Activity (relative to DMSO controls), MELK.
MELK, sequence (Q14680 whole entry, species assumed): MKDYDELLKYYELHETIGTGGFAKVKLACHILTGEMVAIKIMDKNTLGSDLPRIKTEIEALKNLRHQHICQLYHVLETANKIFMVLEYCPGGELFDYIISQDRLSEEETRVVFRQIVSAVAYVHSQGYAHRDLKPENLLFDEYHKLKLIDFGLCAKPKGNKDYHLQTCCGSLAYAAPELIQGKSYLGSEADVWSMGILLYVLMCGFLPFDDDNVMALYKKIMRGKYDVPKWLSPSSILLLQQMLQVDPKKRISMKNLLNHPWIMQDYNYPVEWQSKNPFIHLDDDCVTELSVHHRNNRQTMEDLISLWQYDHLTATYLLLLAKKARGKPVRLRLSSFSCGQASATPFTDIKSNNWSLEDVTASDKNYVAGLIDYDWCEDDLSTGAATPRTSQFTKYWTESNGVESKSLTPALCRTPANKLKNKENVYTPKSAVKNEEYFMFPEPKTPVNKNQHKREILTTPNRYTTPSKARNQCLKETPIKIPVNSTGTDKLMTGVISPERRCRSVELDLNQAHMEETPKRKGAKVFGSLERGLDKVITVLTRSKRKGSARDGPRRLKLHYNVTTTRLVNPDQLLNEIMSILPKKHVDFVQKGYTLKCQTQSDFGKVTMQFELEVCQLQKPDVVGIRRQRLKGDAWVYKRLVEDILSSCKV
A further assay concerns the target CAMK2g (Homo sapiens, UniProt Q13555). To be noted: compound 10 μM, 10 μM ATP, duplicate (Data 1, Data 2), >100 activation, <100 inhibition; for remaining activity at 10 µM: read-out: % Enzyme Activity (relative to DMSO controls), CAMK2g.
The target of the next assay is T2, DDR2 (Homo sapiens, UniProt Q16832).
T2 sequence (Q16832 22-855): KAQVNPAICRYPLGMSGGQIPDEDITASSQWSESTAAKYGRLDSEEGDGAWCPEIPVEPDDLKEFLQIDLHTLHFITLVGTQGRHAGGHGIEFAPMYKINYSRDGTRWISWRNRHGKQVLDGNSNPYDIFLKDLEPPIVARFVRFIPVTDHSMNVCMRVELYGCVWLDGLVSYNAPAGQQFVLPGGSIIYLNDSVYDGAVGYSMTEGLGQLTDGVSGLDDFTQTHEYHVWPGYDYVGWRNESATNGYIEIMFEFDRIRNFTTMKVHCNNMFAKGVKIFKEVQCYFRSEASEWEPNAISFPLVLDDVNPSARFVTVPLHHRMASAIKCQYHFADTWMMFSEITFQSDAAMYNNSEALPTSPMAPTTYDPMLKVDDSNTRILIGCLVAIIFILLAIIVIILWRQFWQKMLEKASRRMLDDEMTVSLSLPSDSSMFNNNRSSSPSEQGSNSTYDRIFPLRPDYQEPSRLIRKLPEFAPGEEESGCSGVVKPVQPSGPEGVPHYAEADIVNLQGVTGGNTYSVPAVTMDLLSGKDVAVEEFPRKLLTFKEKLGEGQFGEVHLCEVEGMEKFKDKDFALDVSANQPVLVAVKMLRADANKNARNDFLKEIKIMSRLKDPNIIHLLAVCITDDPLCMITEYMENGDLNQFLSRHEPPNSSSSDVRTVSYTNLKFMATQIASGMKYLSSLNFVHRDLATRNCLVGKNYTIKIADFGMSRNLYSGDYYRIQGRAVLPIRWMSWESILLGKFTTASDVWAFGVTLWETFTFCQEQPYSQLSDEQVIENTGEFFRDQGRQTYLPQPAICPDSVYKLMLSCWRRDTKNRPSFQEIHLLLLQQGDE
To be noted: compound 10 μM, 10 μM ATP, duplicate (Data 1, Data 2), >100 activation, <100 inhibition; for remaining activity at 10 µM: read-out: % Enzyme Activity (relative to DMSO controls), DDR2.

For the next assay, the target named is c-Kit (Homo sapiens, UniProt P10721). The following applies: compound 10 μM, 10 μM ATP, duplicate (Data 1, Data 2), >100 activation, <100 inhibition; for remaining activity at 10 µM: read-out: % Enzyme Activity (relative to DMSO controls), c-Kit.
c-Kit, sequence (P10721 26-976): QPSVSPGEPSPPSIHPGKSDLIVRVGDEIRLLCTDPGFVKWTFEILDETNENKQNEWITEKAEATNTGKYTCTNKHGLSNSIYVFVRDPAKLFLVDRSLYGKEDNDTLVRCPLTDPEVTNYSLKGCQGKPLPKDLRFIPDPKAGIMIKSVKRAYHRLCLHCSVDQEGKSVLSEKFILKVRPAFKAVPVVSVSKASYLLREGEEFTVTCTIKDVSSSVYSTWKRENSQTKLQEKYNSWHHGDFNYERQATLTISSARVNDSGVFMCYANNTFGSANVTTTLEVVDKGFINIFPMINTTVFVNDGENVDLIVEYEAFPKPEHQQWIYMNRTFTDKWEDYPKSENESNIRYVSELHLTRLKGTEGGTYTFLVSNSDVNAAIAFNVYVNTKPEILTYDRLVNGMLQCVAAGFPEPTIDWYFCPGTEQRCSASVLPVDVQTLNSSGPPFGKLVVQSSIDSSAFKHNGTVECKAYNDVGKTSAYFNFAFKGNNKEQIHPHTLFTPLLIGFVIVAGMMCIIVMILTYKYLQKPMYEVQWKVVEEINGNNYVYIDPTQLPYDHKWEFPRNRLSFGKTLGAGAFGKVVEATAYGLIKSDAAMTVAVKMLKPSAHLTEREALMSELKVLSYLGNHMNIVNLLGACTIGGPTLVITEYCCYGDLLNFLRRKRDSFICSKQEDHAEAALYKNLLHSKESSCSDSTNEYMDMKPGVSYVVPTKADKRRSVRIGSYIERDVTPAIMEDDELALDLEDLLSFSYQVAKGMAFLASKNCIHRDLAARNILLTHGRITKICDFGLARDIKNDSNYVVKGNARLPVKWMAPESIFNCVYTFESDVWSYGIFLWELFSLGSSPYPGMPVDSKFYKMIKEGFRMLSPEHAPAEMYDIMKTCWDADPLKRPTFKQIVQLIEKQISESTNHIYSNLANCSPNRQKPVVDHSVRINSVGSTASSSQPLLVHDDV
For another assay, the target named is T3, RIPK4 (Homo sapiens, UniProt P57078).
T3 sequence (P57078 1-832): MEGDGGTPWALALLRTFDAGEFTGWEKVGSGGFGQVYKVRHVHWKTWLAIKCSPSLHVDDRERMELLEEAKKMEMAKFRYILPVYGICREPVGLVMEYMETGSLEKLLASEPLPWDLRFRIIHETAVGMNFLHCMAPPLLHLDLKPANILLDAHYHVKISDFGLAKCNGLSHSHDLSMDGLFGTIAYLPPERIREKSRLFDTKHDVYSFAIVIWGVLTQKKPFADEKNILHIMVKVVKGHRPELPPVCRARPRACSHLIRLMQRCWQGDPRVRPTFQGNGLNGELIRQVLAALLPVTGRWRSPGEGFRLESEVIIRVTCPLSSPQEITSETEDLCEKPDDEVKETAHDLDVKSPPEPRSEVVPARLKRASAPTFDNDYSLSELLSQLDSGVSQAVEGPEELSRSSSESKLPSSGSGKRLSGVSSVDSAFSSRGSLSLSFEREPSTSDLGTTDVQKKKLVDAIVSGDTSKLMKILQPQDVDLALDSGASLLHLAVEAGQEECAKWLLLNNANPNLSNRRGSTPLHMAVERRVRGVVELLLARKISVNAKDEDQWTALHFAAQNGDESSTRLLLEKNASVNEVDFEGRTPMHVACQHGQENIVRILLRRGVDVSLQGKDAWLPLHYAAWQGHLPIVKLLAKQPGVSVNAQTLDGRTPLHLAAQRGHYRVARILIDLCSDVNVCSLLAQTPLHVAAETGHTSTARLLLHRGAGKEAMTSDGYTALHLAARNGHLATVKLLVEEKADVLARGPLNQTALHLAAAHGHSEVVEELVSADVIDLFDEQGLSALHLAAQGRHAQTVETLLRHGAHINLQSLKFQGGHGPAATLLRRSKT
To be noted: compound 10 μM, 10 μM ATP, duplicate (Data 1, Data 2), >100 activation, <100 inhibition; for remaining activity at 10 µM: read-out: % Enzyme Activity (relative to DMSO controls), RIPK4.

Regarding `CC(C)(CCCCc1cccc(CCCCC(C)(C)C(=O)SCCNC(=O)CCNC(=O)[C@H](O)C(C)(C)COP(=O)(O)OP(=O)(O)OC[C@H]2O[C@@H](n3cnc4c(N)ncnc43)[C@H](O)[C@@H]2OP(=O)(O)O)c1)C(=O)O` [Compound I-32-CoA, 6-[3-(5-Carboxy-5-methylhexyl)-phenyl]-2,2-dimethylhexanoic acid Coenzyme A Ester], on AURORA C, the “% Enzyme Activity (relative to DMSO controls), AURORA C” value is 48.46% and 46.83%. The “% Enzyme Activity (relative to DMSO controls), PIM3” value at PIM3 is 51.10% and 43.67%. For the same compound, the “% Enzyme Activity (relative to DMSO controls), MELK” value at MELK was 28.56% and 27.35%. On CAMK2g, the “% Enzyme Activity (relative to DMSO controls), CAMK2g” value was 35.05% and 34.20%. Also, on DDR2, the “% Enzyme Activity (relative to DMSO controls), DDR2” value was 29.98% and 25.40%. Further, the “% Enzyme Activity (relative to DMSO controls), c-Kit” value on c-Kit is 49.53% and 49.21%. The “% Enzyme Activity (relative to DMSO controls), RIPK4” value on RIPK4 is 33.02% and 32.84%.

As to `CC(C)(CCCCc1cccc(CCCCC(C)(C)C(=O)O)c1)C(=O)O` [Compound I-32, 6-[3-(5-carboxy-5-methylhexyl)-phenyl]-2,2-dimethylhexanoic acid], the remaining activity at 10 µM at AURORA C was 104%; on PIM3, 90%; on MELK, 114%; at CAMK2g it was 73.2%; on DDR2, 91.4%; on c-Kit, 73.6%. The remaining activity at 10 µM at RIPK4 was found to be 43%.

On to `CC(C)(CCCCc1ccc(CCCCC(C)(C)C(=O)SCCNC(=O)CCNC(=O)[C@H](O)C(C)(C)COP(=O)(O)OP(=O)(O)OC[C@H]2O[C@@H](n3cnc4c(N)ncnc43)[C@H](O)[C@@H]2OP(=O)(O)O)cc1)C(=O)O` [Compound I-1-CoA, 6-[4-(5-carboxy-5-methylhexyl)-phenyl]-2,2-dimethylhexanoic acid Coenzyme A ester], for which, on AURORA C, the “% Enzyme Activity (relative to DMSO controls), AURORA C” value was 78.81% and 72.15%. The “% Enzyme Activity (relative to DMSO controls), PIM3” value on PIM3 is 73.92% and 70.32%. The “% Enzyme Activity (relative to DMSO controls), MELK” value on MELK was 23.02% and 21.99%. The “% Enzyme Activity (relative to DMSO controls), CAMK2g” value on CAMK2g is 53.91% and 53.05%. For the same compound, the “% Enzyme Activity (relative to DMSO controls), DDR2” value on DDR2 was 88.28% and 79.94%. Besides, the “% Enzyme Activity (relative to DMSO controls), c-Kit” value on c-Kit is 73.56% and 73.24%. Moreover, at RIPK4, the “% Enzyme Activity (relative to DMSO controls), RIPK4” value was 32.26% and 29.70%.

With `CC(C)(CCCCc1ccc(CCCCC(C)(C)C(=O)O)cc1)C(=O)O` [Compound I-1, 6-[4-(5-carboxy-5-methylhexyl)-phenyl]-2,2-dimethylhexanoic acid], the remaining activity at 10 µM came out at 101% on AURORA C; 87.9% on PIM3; 110% on MELK; 60.6% on CAMK2g; 79.8% at DDR2; 85.5% on c-Kit. Moreover, the remaining activity at 10 µM on RIPK4 amounted to 45.1%.
